From article PMC11279797, “Shifting Mycobacterial Serine Hydrolase Activity Visualized Using Multi-Layer In-Gel Activity Assays” (Molecules, 2024)

Molecular target: T1, LipN (Mycolicibacterium smegmatis, UniProt I7G6G5)
T1 sequence (I7G6G5 1-378): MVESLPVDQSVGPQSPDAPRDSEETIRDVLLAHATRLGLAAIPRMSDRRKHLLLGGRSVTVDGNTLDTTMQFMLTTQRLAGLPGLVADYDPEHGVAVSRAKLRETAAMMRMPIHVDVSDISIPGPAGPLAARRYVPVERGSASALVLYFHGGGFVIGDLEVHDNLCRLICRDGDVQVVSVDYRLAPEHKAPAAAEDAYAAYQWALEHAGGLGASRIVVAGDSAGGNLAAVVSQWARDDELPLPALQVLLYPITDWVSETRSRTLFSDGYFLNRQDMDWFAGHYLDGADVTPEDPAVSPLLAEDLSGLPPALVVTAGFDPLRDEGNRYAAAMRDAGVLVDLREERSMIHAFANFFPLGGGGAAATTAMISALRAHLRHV
Assay: fluorogenic ester hydrolysis, initial rates, Michaelis-Menten fit
Format: biochemical
Details: PBS pH 7.4, 0.1 mg/mL acetylated BSA, 25 C

SMILES: O=C(OCOc1ccc2c(c1)Oc1cc(OCOC(=O)c3cnco3)ccc1C21OC(=O)c2ccccc21)c1cnco1 [compound 7, substrate 7]
- KM: Msmeg LipN has high enzymatic activity against the oxazole ester substrate
